This passage reports EC50 results from US20260070906A1, “IMIDAZO[4,5-C]PYRIDINE COMPOUNDS FOR THE TREATMENT OF CANCER” (Hoffmann-La Roche Inc., priority 2023, published 2026).

The target in one experiment is T1, human TLR7 (Homo sapiens, UniProt Q9NYK1).
T1 construct: host or cells: HEK293-Blue-hTLR7 (HEK293)
T1 sequence (Q9NYK1 27-1049): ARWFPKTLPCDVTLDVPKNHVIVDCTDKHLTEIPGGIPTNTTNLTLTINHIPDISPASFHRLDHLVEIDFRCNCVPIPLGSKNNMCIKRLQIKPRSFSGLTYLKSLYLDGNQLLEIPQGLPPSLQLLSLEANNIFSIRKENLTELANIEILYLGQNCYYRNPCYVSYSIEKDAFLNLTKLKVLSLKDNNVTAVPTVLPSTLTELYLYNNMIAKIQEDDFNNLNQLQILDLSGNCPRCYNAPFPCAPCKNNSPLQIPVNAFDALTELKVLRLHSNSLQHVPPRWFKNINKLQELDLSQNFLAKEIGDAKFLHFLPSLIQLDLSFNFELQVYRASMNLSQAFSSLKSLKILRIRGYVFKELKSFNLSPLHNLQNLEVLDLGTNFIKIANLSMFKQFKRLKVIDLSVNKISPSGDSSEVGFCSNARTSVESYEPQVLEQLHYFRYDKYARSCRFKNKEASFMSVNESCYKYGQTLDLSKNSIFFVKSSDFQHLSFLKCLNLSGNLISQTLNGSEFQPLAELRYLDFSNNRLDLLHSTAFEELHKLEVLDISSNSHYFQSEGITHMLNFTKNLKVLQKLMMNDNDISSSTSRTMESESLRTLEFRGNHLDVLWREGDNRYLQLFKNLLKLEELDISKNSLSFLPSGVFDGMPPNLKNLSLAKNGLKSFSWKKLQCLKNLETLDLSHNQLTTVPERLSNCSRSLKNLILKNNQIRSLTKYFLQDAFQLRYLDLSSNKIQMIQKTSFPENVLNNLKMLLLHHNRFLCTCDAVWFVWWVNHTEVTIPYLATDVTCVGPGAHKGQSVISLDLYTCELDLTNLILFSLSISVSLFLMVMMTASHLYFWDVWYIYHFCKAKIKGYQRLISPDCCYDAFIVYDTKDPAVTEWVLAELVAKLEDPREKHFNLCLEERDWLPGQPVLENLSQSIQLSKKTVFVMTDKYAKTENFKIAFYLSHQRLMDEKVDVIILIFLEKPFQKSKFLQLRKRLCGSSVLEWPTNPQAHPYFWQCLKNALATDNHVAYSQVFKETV
The experiment can be described thus: HEK293-Blue-hTLR7 cells assay (NF-κB SEAP reporter). The following applies: 20 hrs incubation, agonism. The format is cell-based. The text has this:
A stable HEK293-Blue-hTLR7 cell line was purchased from InvivoGen (Cat. #: hkb-htlr7, San Diego, California, USA). These cells were designed for studying the stimulation of human TLR7 by monitoring the activation of NF-κB. A SEAP (secreted embryonic alkaline phosphatase) reporter gene was placed under the control of the IFN-β minimal promoter fused to five NF-κB and AP-1-binding sites. The SEAP was induced by activating NF-κB and AP-1 via stimulating HEK-Blue hTLR7 cells with TLR7 ligands. Therefore the reporter expression was regulated by the NF-κB promoter upon stimulation of human TLR7 for 20 hrs. The cell culture supernatant SEAP reporter activity was determined using QUANTI-Blue™ kit (Cat. #: rep-qbl, Invivogen, San Diego, Ca, USA) at a wavelength of 650 nm, a detection medium that turns purple or blue in the presence of alkaline phosphatase.
HEK293-Blue-hTLR7 cells were incubated at a density of 250,000˜450,000 cells/mL in a volume of 180 μL in a 96-well plate in Dulbecco's Modified Eagle's medium (DMEM) containing 4.5 g/L glucose, 100 U/mL penicillin, 100 μg/mL streptomycin, 100 μg/mL Normocin, 1% (V/V) GlutaMAX™, 10% (V/V) heat-inactivated fetal bovine serum for 24 hrs. Then the HEK293-Blue-hTLR-7 cells were incubated with addition of 20 μL test compound in a serial dilution in the presence of final DMSO at 1% and perform incubation under 37° C. in a CO2 incubator for 20 hrs. Then 20 μL of the supernatant from each well was incubated with 180 μL Quanti-blue substrate solution at 37° C. for 1 hours and the absorbance was read at 620-655 nm using a spectrophotometer. The signalling pathway that TLR7 activation leads to downstream NF-κB activation has been widely accepted, and therefore similar reporter assay was also widely used for evaluating TLR7 agonist (Tsuneyasu Kaisho and Takashi Tanaka, Trends in Immunology, Volume 29, Issue 7, July 2008, […]; Hiroaki Hemmi et al, Nature Immunology 3, 196-200 (2002)).

In the next experiment the target is T2, human TLR8 (Homo sapiens, UniProt Q9NR97).
T2 construct: host or cells: HEK293-Blue-hTLR8 (HEK293)
T2 sequence (Q9NR97 27-1041): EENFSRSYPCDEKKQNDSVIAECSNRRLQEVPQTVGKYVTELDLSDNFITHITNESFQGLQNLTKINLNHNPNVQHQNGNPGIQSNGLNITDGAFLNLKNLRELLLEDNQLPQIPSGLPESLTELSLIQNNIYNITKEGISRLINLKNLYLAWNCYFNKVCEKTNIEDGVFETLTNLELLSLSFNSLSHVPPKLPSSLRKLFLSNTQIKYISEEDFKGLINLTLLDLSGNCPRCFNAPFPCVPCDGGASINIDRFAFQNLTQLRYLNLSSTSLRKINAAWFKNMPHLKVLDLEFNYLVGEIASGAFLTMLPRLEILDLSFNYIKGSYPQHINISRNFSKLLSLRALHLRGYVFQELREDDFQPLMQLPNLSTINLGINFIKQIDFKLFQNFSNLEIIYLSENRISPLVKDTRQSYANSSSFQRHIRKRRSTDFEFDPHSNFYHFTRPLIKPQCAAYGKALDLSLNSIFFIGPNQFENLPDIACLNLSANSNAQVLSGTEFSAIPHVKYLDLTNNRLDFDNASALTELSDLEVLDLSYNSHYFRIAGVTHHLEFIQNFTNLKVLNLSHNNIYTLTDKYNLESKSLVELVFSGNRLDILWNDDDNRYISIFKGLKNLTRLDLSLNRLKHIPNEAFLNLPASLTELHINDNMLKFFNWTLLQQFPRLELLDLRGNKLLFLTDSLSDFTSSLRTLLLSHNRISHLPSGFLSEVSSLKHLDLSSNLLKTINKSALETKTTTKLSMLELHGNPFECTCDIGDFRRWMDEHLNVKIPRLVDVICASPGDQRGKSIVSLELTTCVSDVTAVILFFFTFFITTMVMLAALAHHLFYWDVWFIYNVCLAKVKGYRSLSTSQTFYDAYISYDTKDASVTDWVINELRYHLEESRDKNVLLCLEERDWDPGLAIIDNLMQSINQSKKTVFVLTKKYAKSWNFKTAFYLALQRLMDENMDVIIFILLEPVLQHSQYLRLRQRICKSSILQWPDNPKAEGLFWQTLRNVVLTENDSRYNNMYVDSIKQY
The experiment can be described thus: HEK293-Blue-hTLR8 cells assay (NF-κB SEAP reporter). It is filed as cell-based. The following applies: 20 hours incubation, agonism. An excerpt: A stable HEK293-Blue-hTLR8 cell line was purchased from InvivoGen (Cat. #: hkb-htlr8, San Diego, California, USA). These cells were designed for studying the stimulation of human TLR8 by monitoring the activation of NF-κB. A SEAP (secreted embryonic alkaline phosphatase) reporter gene was placed under the control of the IFN-β minimal promoter fused to five NF-κB and AP-1-binding sites. The SEAP was induced by activating NF-κB and AP-1 via stimulating HEK-Blue hTLR8 cells with TLR8 ligands. Therefore the reporter expression was regulated by the NF-κB promoter upon stimulation of human TLR8. The cell culture supernatant SEAP reporter activity was determined using QUANTI-Blue™ kit (Cat. #: rep-qbl, Invivogen, San Diego, Ca, USA) at a wavelength of 650 nm, a detection medium that turns purple to blue in the presence of alkaline phosphatase.
HEK293-Blue-hTLR8 cells were incubated at a density of 250,000-450,000 cells/mL in a volume of 180 μL in a 96-well plate in Dulbecco's Modified Eagle's medium (DMEM) containing 4.5 g/L glucose, 100 U/mL penicillin, 100 μg/mL streptomycin, 100 μg/mL Normocin, 1% (V/V) GlutaMAX™, 10% (v/v) heat-inactivated fetal bovine serum for 24 hours. Then the HEK293-Blue-hTLR8 cells were incubated with addition of 20 μL test compound in a serial dilution in the presence of final DMSO at 1% and perform incubation under 37° C. in a CO2 incubator for 20 hours. Then 20 μL of the supernatant from each well was incubated with 180 μL Quanti-blue substrate solution at 37° C. for 1 hours and the absorbance was read at 620-655 nm using a spectrophotometer. The signalling pathway that TLR8 activation leads to downstream NF-κB activation has been widely accepted, and therefore similar reporter assay was also widely used for evaluating TLR8 agonist.

`CCOCc1nc2c(N)nc(C)c(SCCc3ccc(CN(C)C)c(O)c3)c2[nH]1` [Example 13, 5-[2-[[4-amino-2-(ethoxymethyl)-6-methyl-LH-imidazo[4,5-c]pyridin-7-yl]sulfanyl]ethyl]-2-[(dimethylamino)methyl]phenol]: the EC50 was 12 nM at human TLR7 and 19 nM at human TLR8.
For the molecule `CCCCc1nc2c(N)nc(C)c(Sc3ccc(CN(C)C)cc3)c2[nH]1` [Example 14, 2-butyl-7-[4-[(dimethylamino)methyl]phenyl]sulfanyl-6-methyl-1H-imidazo[4,5-c]pyridin-4-amine], the EC50 at human TLR7 is 15 nM; on human TLR8, 14 nM.
For `CCCCc1nc2c(N)nc(C)c(SCCc3ccc(CN(C)C)cc3)c2[nH]1` [Example 15, 2-butyl-7-[2-[4-[(dimethylamino)methyl]phenyl]ethylsulfanyl]-6-methyl-1H-imidazo[4,5-c]pyridin-4-amine], the EC50 at human TLR7 turned out to be 6 nM; on human TLR8 it was 22 nM.
The matching figures for `CCOCc1nc2c(N)nc(C)c(Sc3ccc(CN(C)C)c(C)c3O)c2[nH]1` [Example 16, 6-[[4-amino-2-(ethoxymethyl)-6-methyl-1H-imidazo[4,5-c]pyridin-7-yl]sulfanyl]-3-[(dimethylamino)methyl]-2-methyl-phenol]: 31 nM and 22 nM.
Consider `CCOCc1nc2c(N)nc(C)c(Sc3ccc(CN(CC)CC)cc3O)c2[nH]1` [Example 17, 2-[[4-amino-2-(ethoxymethyl)-6-methyl-1H-imidazo[4,5-c]pyridin-7-yl]sulfanyl]-5-(diethylaminomethyl)phenol], for which the EC50 on human TLR7 was determined as 24 nM; on human TLR8, 56 nM.
The corresponding values for `CCOCc1nc2c(N)nc(C)c(Sc3ccc(CN(C)C)c4cc[nH]c34)c2[nH]1` [Example 18, 7-[[4-[(dimethylamino)methyl]-1H-indol-7-yl]sulfanyl]-2-(ethoxymethyl)-6-methyl-1H-imidazo[4,5-c]pyridin-4-amine] are 9 nM and 19 nM.
The matching figures for `CCOCc1nc2c(N)nc(C)c(Sc3ccc(CN(C)C)c4cn[nH]c34)c2[nH]1` [Example 19, 7-[[4-[(dimethylamino)methyl]-1H-indazol-7-yl]sulfanyl]-2-(ethoxymethyl)-6-methyl-1H-imidazo[4,5-c]pyridin-4-amine]: 48 nM and 43 nM.
Take `CCOCc1nc2c(N)nc(C)c(Sc3ccc(CN(C)C)cc3N)c2[nH]1` [Example 20, 7-[2-amino-4-[(dimethylamino)methyl]phenyl]sulfanyl-2-(ethoxymethyl)-6-methyl-LH-imidazo[4,5-c]pyridin-4-amine]: the concentration for a half-maximal effect (EC50) at human TLR7 came to 22 nM; on human TLR8, 40 nM.
On to `CCCCc1nc2c(N)nc(C)c(Sc3ccc(CN(C)C)cc3O)c2[nH]1` [Example 21, 2-[(4-amino-2-butyl-6-methyl-1H-imidazo[4,5-c]pyridin-7-yl)sulfanyl]-5-[(dimethylamino)methyl]phenol], for which the EC50 on human TLR7 is 14 nM; on human TLR8, 43 nM.
With `CCOCc1nc2c(N)nc(C)c(Sc3ccc(CN4CCCC4)cc3O)c2[nH]1` [Example 22, 2-[[4-amino-2-(ethoxymethyl)-6-methyl-1H-imidazo[4,5-c]pyridin-7-yl]sulfanyl]-5-(pyrrolidin-1-ylmethyl)phenol], the EC50 at human TLR7 turned out to be 28 nM; on human TLR8, 37 nM.
For `CCOCc1nc2c(N)nc(C)c(Sc3cc(C)c(CN(C)C)cc3O)c2[nH]1` [Example 23, 2-[[4-amino-2-(ethoxymethyl)-6-methyl-1H-imidazo[4,5-c]pyridin-7-yl]sulfanyl]-5-[(dimethylamino)methyl]-4-methyl-phenol], the figures for the EC50 at human TLR7 and at human TLR8 were 25 nM and 82 nM, respectively.
The matching figures for `CCOCc1nc2c(N)nc(C)c(Sc3ccc(C(C)N(C)C)cc3O)c2[nH]1` (stereo not drawn) [Example 24, 2-[[4-amino-2-(ethoxymethyl)-6-methyl-1H-imidazo[4,5-c]pyridin-7-yl]sulfanyl]-5-[1-(dimethylamino)ethyl]phenol]: 22 nM and 56 nM.

The term EC50 denotes the concentration giving half of the maximal effect. A lower EC50 goes with greater potency.
